Measured values taken from PubChem BioAssay AID2060903 (Molecular Pharmacology Branch, DTP, NCI, 2025).

Test system: 377384-186-R-J1-PDC complex spheroid viability
Assay: Anticancer human tumor 377384-186-R-J1-PDC patient-derived pancreatic carcinoma cell line growth inhibition [RAS]
Conditions: for IC50: curve of first compound; for viability, T/C: stronger effect = lower value
Procedure, shortened: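 Tumour cells grown as complex spheroids with HUVEC endothelial cells and mesenchymal stem cells, treated with RAS pathway inhibitor combinations. Each agent spans half-log steps from near clinical Cmax, or 10 microM where Cmax is unknown.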
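Also: spheroids exposed to compounds for seven days before readout.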

For `CC1(C)CCC(Nc2ncc(C(F)(F)F)c(-c3c[nH]c4c(P(C)(C)=O)c(C#N)ccc34)n2)CN1` (centres undefined) + C#Cc1c(F)ccc2cc(O)cc(-c3ncc4c(N5CC6CCC(C5)N6)nc(OCC56CCCN5CC(F)C6)nc4c3F)c12, which IC50 (second compound 0.0316 µM) is on record?
Its IC50 is less than 0.949 nM.

What about the IC50 (second compound 0.1 µM) of the same molecule?
Its IC50 is less than 0.949 nM.

What about the IC50 (second compound 0.316 µM) of the same molecule?
Its IC50 is less than 0.949 nM.

And the IC50 (second compound 1 µM)?
Its IC50 is less than 0.949 nM.

And the IC50 (second compound 3.16 µM)?
The IC50 was less than 0.949 nM.

What about the IC50 (second compound 10 µM) of the same molecule?
Its IC50 is less than 0.949 nM.

And the viability, T/C (second compound 0.0316 µM, first compound 0.000949 µM)?
Its viability, T/C is 22.5%.

And the viability, T/C (second compound 0.0316 µM, first compound 0.003 µM)?
Its viability, T/C is 20.6%.

What about the viability, T/C (second compound 0.0316 µM, first compound 0.00949 µM) of the same molecule?
Its viability, T/C is 14.8%.

What about the viability, T/C (second compound 0.0316 µM, first compound 0.03 µM) of the same molecule?
The viability, T/C was 14.3%.

What about the viability, T/C (second compound 0.0316 µM, first compound 0.0949 µM) of the same molecule?
Its viability, T/C is 11.5%.

What about the viability, T/C (second compound 0.0316 µM, first compound 0.3 µM) of the same molecule?
Its viability, T/C is 10.4%.

What about the viability, T/C (second compound 0.1 µM, first compound 0.000949 µM) of the same molecule?
Its viability, T/C is 12.3%.

What about the viability, T/C (second compound 0.1 µM, first compound 0.003 µM) of the same molecule?
Its viability, T/C is 8.6%.

And the viability, T/C (second compound 0.1 µM, first compound 0.00949 µM)?
The viability, T/C was 7.96%.

And the viability, T/C (second compound 0.1 µM, first compound 0.03 µM)?
Its viability, T/C is 7.41%.

And the viability, T/C (second compound 0.1 µM, first compound 0.0949 µM)?
Its viability, T/C is 7.16%.

And the viability, T/C (second compound 0.1 µM, first compound 0.3 µM)?
Its viability, T/C is 6.43%.

What about the viability, T/C (second compound 0.316 µM, first compound 0.000949 µM) of the same molecule?
The viability, T/C was 4.28%.

And the viability, T/C (second compound 0.316 µM, first compound 0.003 µM)?
The viability, T/C was 5.25%.

And the viability, T/C (second compound 0.316 µM, first compound 0.00949 µM)?
The viability, T/C was 2.68%.

And the viability, T/C (second compound 0.316 µM, first compound 0.03 µM)?
The viability, T/C was 4.16%.

And the viability, T/C (second compound 0.316 µM, first compound 0.0949 µM)?
The viability, T/C was 3.74%.

What about the viability, T/C (second compound 0.316 µM, first compound 0.3 µM) of the same molecule?
The viability, T/C was 2.89%.

And the viability, T/C (second compound 1 µM, first compound 0.000949 µM)?
Its viability, T/C is 4.34%.

What about the viability, T/C (second compound 1 µM, first compound 0.003 µM) of the same molecule?
Its viability, T/C is 2.56%.

What about the viability, T/C (second compound 1 µM, first compound 0.00949 µM) of the same molecule?
Its viability, T/C is 2.74%.

And the viability, T/C (second compound 1 µM, first compound 0.03 µM)?
The viability, T/C was 3.25%.

And the viability, T/C (second compound 1 µM, first compound 0.0949 µM)?
The viability, T/C was 2.68%.

What about the viability, T/C (second compound 1 µM, first compound 0.3 µM) of the same molecule?
The viability, T/C was 2.91%.

What about the viability, T/C (second compound 3.16 µM, first compound 0.000949 µM) of the same molecule?
The viability, T/C was 2.73%.

What about the viability, T/C (second compound 3.16 µM, first compound 0.003 µM) of the same molecule?
The viability, T/C was 2.34%.

And the viability, T/C (second compound 3.16 µM, first compound 0.00949 µM)?
Its viability, T/C is 1.84%.

And the viability, T/C (second compound 3.16 µM, first compound 0.03 µM)?
Its viability, T/C is 2.23%.

And the viability, T/C (second compound 3.16 µM, first compound 0.0949 µM)?
The viability, T/C was 2.14%.

What about the viability, T/C (second compound 3.16 µM, first compound 0.3 µM) of the same molecule?
The viability, T/C was 2.47%.

What about the viability, T/C (second compound 10 µM, first compound 0.000949 µM) of the same molecule?
The viability, T/C was 1.18%.

What about the viability, T/C (second compound 10 µM, first compound 0.003 µM) of the same molecule?
Its viability, T/C is 1.24%.

And the viability, T/C (second compound 10 µM, first compound 0.00949 µM)?
The viability, T/C was 1.33%.

And the viability, T/C (second compound 10 µM, first compound 0.03 µM)?
Its viability, T/C is 1.3%.

And the viability, T/C (second compound 10 µM, first compound 0.0949 µM)?
The viability, T/C was 0.94%.

What about the viability, T/C (second compound 10 µM, first compound 0.3 µM) of the same molecule?
Its viability, T/C is 0.79%.

Which results are given for `CC(C)n1nc(-c2ccc3oc(N)nc3c2)c2c(N)ncnc21` + C#Cc1c(F)ccc2cc(O)cc(-c3ncc4c(N5CC6CCC(C5)N6)nc(OCC56CCCN5CC(F)C6)nc4c3F)c12?
IC50 (second compound 0.0316 µM): < 0.316 nM; IC50 (second compound 0.1 µM): < 0.316 nM; IC50 (second compound 0.316 µM): < 0.316 nM; IC50 (second compound 1 µM): < 0.316 nM; IC50 (second compound 3.16 µM): < 0.316 nM; IC50 (second compound 10 µM): < 0.316 nM; viability, T/C (second compound 0.0316 µM, first compound 0.000316 µM): 23.1%; viability, T/C (second compound 0.0316 µM, first compound 0.001 µM): 17.9%; viability, T/C (second compound 0.0316 µM, first compound 0.00316 µM): 13.3%; viability, T/C (second compound 0.0316 µM, first compound 0.01 µM): 16.1%; viability, T/C (second compound 0.0316 µM, first compound 0.0316 µM): 8.86%; viability, T/C (second compound 0.0316 µM, first compound 0.1 µM): 7.03%; viability, T/C (second compound 0.1 µM, first compound 0.000316 µM): 9.35%; viability, T/C (second compound 0.1 µM, first compound 0.001 µM): 10.2%; viability, T/C (second compound 0.1 µM, first compound 0.00316 µM): 8.78%; viability, T/C (second compound 0.1 µM, first compound 0.01 µM): 8.07%; viability, T/C (second compound 0.1 µM, first compound 0.0316 µM): 4.39%; viability, T/C (second compound 0.1 µM, first compound 0.1 µM): 3.64%; viability, T/C (second compound 0.316 µM, first compound 0.000316 µM): 4.61%; viability, T/C (second compound 0.316 µM, first compound 0.001 µM): 4.79%; viability, T/C (second compound 0.316 µM, first compound 0.00316 µM): 3.5%; viability, T/C (second compound 0.316 µM, first compound 0.01 µM): 3.8%; viability, T/C (second compound 0.316 µM, first compound 0.0316 µM): 2.4%; viability, T/C (second compound 0.316 µM, first compound 0.1 µM): 2.03%; viability, T/C (second compound 1 µM, first compound 0.000316 µM): 2.88%; viability, T/C (second compound 1 µM, first compound 0.001 µM): 2.78%; viability, T/C (second compound 1 µM, first compound 0.00316 µM): 2.19%; viability, T/C (second compound 1 µM, first compound 0.01 µM): 2.05%; viability, T/C (second compound 1 µM, first compound 0.0316 µM): 1.53%; viability, T/C (second compound 1 µM, first compound 0.1 µM): 1.23%; viability, T/C (second compound 3.16 µM, first compound 0.000316 µM): 1.79%; viability, T/C (second compound 3.16 µM, first compound 0.001 µM): 2.07%; viability, T/C (second compound 3.16 µM, first compound 0.00316 µM): 2.15%; viability, T/C (second compound 3.16 µM, first compound 0.01 µM): 1.84%; viability, T/C (second compound 3.16 µM, first compound 0.0316 µM): 1.11%; viability, T/C (second compound 3.16 µM, first compound 0.1 µM): 0.65%; viability, T/C (second compound 10 µM, first compound 0.000316 µM): 1.04%; viability, T/C (second compound 10 µM, first compound 0.001 µM): 0.81%; viability, T/C (second compound 10 µM, first compound 0.00316 µM): 0.8%; viability, T/C (second compound 10 µM, first compound 0.01 µM): 0.63%; viability, T/C (second compound 10 µM, first compound 0.0316 µM): 0.95%; viability, T/C (second compound 10 µM, first compound 0.1 µM): 0.15%
